{"source": "paper PMC7794397", "about": "“Curbing gastrointestinal infections by defensin fragment modifications without harming commensal microbiota” (Communications Biology, 2021)", "key": {"S. Typhimurium": {"test_system": "S. Typhimurium", "format": "cell-based", "conditions": "radial diffusion assay", "experimental": "Antimicrobial activity was analyzed by radial diffusion assay. Log-phase bacteria were cultivated for up to 18 h in TSB (TSB, Becton Dickinson, USA), washed and diluted to 4 × 10^6 CFU in 10 ml agar. Bacteria were incubated in 10 ml of 10 mM sodium phosphate, pH 7.4, containing 0.3 mg/ml of TSB powder and 1% (w/v) low EEO-agarose (AppliChem). 1 µg of each lipopeptide was pipetted into punched wells in a final volume of 4 µl and diffused into the gel for 3 h at 37 °C. After that, a nutrient-rich gel with 6% TSB (w/v) and 1% agarose in 10 mM sodium phosphate buffer was poured on top of the first gel and incubated for up to 24 h at 37 °C. Then the diameter of inhibition zones was measured."}, "P. aeruginosa PAO1": {"test_system": "P. aeruginosa PAO1", "assay": "Treatment of established biofilms", "format": "cell-based", "parameters": "viable bacteria in biofilm: unit not given here", "conditions": "for viable bacteria in biofilm: 24 h old biofilm, 1 h treatment", "experimental": "Then, planktonic bacteria were removed by two wash steps with PBS. […] Afterward, adherent bacteria in each well were resuspended, and the number of viable bacteria was determined microbiologically. […] The biofilm degradation assay was performed in agreement with the original report describing this method first."}, "[1]": {"test_system": "B. subtilis ypuA promoter", "assay": "ypuA promoter luciferase reporter strain (cell envelope stress)", "format": "cell-based", "experimental": "A specific bacterial reporter strain with the genetic background of Bacillus subitilis 1S34, carrying the promoter of the ypuA gene, fused to the firefly luciferase reporter gene, was used to identify cell envelope-related damage caused by treatment with antimicrobial compounds[31]. The assay was carried out in agreement with former reports describing this method[20],[59]. Bacteria were cultured to an OD600 of 0.9 in LB broth with 5 µg/ml erythromycin at 37 °C and diluted to an OD600 of 0.02. Serial peptide dilutions (0.15–150 µM) were prepared in a microtiter plate and incubated with the adjusted bacterial suspension at 37 °C for 1 h. Subsequently, citrate buffer (0.1 M, pH 5) containing 2 mM luciferin (Iris Biotech, Germany) was added and luminescence was measured using a microplate reader (Tecan, Switzerland)."}, "[2]": {"assay": "Oral tolerance test (safety) in mice", "format": "in vivo, C57BL/6N mice", "conditions": "for Creatinin / GOT: serum; for Creatinin / GOT / Bodyweight loss: individual animals", "description": "C57BL/6N mice were generated and maintained (including breeding and housing) at the animal facilities of the Helmholtz Centre for Infection Research (HZI) under enhanced specific pathogen-free (SPF) conditions. Animals used in the experiments were gender and age matched. Female and male mice with an age of 8–12 weeks were used. Sterilized food and water ad libitum was provided. Mice were kept under a strict 12-h light cycle (lights on at 7:00 am and off at 7:00 pm) and housed in groups of two to six mice per cage. All mice were euthanized by asphyxiation with CO2 and cervical dislocation. All animal experiments were performed in agreement with the local government of Lower Saxony, Germany (approved permission No. 33.19-42502-04-18/2499).\nAge- and gender-matched mice received two doses of peptides (0, 125 µg or 250 µg) solved in 100 µl PBS orally per day. Bodyweight and appearance were recorded. The following day, mice were sacrificed and stomach, kidney, spleen, liver, small intestine, cecum, and colon were removed for histological scoring. Around 1 ml of blood was taken from the heart to measure inflammatory markers, including creatinine in the kidney and the enzyme levels of glutamate-oxalacetate-transaminase (GOT) in the liver."}, "[3]": {"conditions": "histology, animals with signs of pathology/total, treated twice with 250 µg orally, within 24 h"}, "[4]": {"conditions": "one day after 2 x 125 µg orally, N = 4"}, "[5]": {"conditions": "one day after 2 x 250 µg orally, N = 6"}}, "note": "“And” between values parts separate entries of the source, which are not always exact repeats. Equal entries are not always repeated. Residues, ends and D or L forms follow the SMILES beside them. *: point of attachment. Palmitoyl = CCCCCCCCCCCCCCCC(=O)*; AEEA = NCCOCCOCC(=O)O"}
{"smiles": "CCCCCCCCCCCCCCCC(=O)NCCOCCOCC(=O)N[C@@H](CCCNC(=N)N)C(=O)NCC(=O)N[C@@H](CCCCN)C(=O)N[C@@H](C)C(=O)N[C@@H](CCCCN)C(=O)N[C@@H](CS)C(=O)N[C@@H](CS)C(=O)N[C@@H](CCCCN)C(=O)O", "note": "[Pam-3] ({Palmitoyl-AEEA}-RGKAKCCK-OH; C-terminus assumed)", "values": [{"measurement": "inhibition of S. Typhimurium growth (in words)", "setting": "S. Typhimurium", "result": "consistently inhibited"}, {"measurement": "elimination of bacteria in biofilms (in words)", "setting": "P. aeruginosa PAO1; 300 µM, within 1 h, Kruskal–Wallis p = 0.0074", "result": "eliminated"}, {"measurement": "viable bacteria in biofilm", "setting": "P. aeruginosa PAO1; 9.375 µM Pam-3, experiment 1", "result": 1541667}, {"measurement": "viable bacteria in biofilm", "setting": "P. aeruginosa PAO1; 9.375 µM Pam-3, experiment 2", "result": 3730000}, {"measurement": "viable bacteria in biofilm", "setting": "P. aeruginosa PAO1; 9.375 µM Pam-3, experiment 3", "result": 2210000}, {"measurement": "viable bacteria in biofilm", "setting": "P. aeruginosa PAO1; 18.75 µM Pam-3, experiment 1", "result": 800000}, {"measurement": "viable bacteria in biofilm", "setting": "P. aeruginosa PAO1; 18.75 µM Pam-3, experiment 2", "result": 125000}, {"measurement": "viable bacteria in biofilm", "setting": "P. aeruginosa PAO1; 18.75 µM Pam-3, experiment 3", "result": 1510000}, {"measurement": "viable bacteria in biofilm", "setting": "P. aeruginosa PAO1; 37.5 µM Pam-3, experiment 1", "result": 70000}, {"measurement": "viable bacteria in biofilm", "setting": "P. aeruginosa PAO1; 37.5 µM Pam-3, experiment 2", "result": 21111}, {"measurement": "viable bacteria in biofilm", "setting": "P. aeruginosa PAO1; 37.5 µM Pam-3, experiment 3", "result": 362889}, {"measurement": "viable bacteria in biofilm", "setting": "P. aeruginosa PAO1; 75 µM Pam-3, experiment 1", "result": 1100}, {"measurement": "viable bacteria in biofilm", "setting": "P. aeruginosa PAO1; 75 µM Pam-3, experiment 2", "result": 67067}, {"measurement": "viable bacteria in biofilm", "setting": "P. aeruginosa PAO1; 75 µM Pam-3, experiment 3", "result": 5525}, {"measurement": "viable bacteria in biofilm", "setting": "P. aeruginosa PAO1; 150 µM Pam-3, experiment 1", "result": 333}, {"measurement": "viable bacteria in biofilm", "setting": "P. aeruginosa PAO1; 150 µM Pam-3, experiment 2", "result": 433}, {"measurement": "viable bacteria in biofilm", "setting": "P. aeruginosa PAO1; 150 µM Pam-3, experiment 3", "result": 167}, {"measurement": "viable bacteria in biofilm", "setting": "P. aeruginosa PAO1; 300 µM Pam-3, 1 = no growth, experiment 1", "result": 1}, {"measurement": "viable bacteria in biofilm", "setting": "P. aeruginosa PAO1; 300 µM Pam-3, 1 = no growth, experiment 2", "result": 1}, {"measurement": "viable bacteria in biofilm", "setting": "P. aeruginosa PAO1; 300 µM Pam-3, 1 = no growth, experiment 3", "result": 1}, {"measurement": "activation of the ypuA promoter", "setting": "[1]", "result": 2, "unit": "fold"}, {"measurement": "ypuA promoter activation (relative to untreated = 1)", "setting": "[1]; 0.031x MIC Pam-3, 1 h, experiment 1", "result": 1.05}, {"measurement": "ypuA promoter activation (relative to untreated = 1)", "setting": "[1]; 0.031x MIC Pam-3, 1 h, experiment 2", "result": 1.15}, {"measurement": "ypuA promoter activation (relative to untreated = 1)", "setting": "[1]; 0.031x MIC Pam-3, 1 h, experiment 3", "result": 1.17}, {"measurement": "ypuA promoter activation (relative to untreated = 1)", "setting": "[1]; 0.062x MIC Pam-3, 1 h, experiment 1", "result": 1.16}, {"measurement": "ypuA promoter activation (relative to untreated = 1)", "setting": "[1]; 0.062x MIC Pam-3, 1 h, experiment 2", "result": 1.27}, {"measurement": "ypuA promoter activation (relative to untreated = 1)", "setting": "[1]; 0.062x MIC Pam-3, 1 h, experiment 3", "result": 1.36}, {"measurement": "ypuA promoter activation (relative to untreated = 1)", "setting": "[1]; 0.125x MIC Pam-3, 1 h, experiment 1", "result": 1.38}, {"measurement": "ypuA promoter activation (relative to untreated = 1)", "setting": "[1]; 0.125x MIC Pam-3, 1 h, experiment 2", "result": 1.48}, {"measurement": "ypuA promoter activation (relative to untreated = 1)", "setting": "[1]; 0.125x MIC Pam-3, 1 h, experiment 3", "result": 1.76}, {"measurement": "ypuA promoter activation (relative to untreated = 1)", "setting": "[1]; 0.25x MIC Pam-3, 1 h, experiment 1", "result": 2.12}, {"measurement": "ypuA promoter activation (relative to untreated = 1)", "setting": "[1]; 0.25x MIC Pam-3, 1 h, experiment 2", "result": 2}, {"measurement": "ypuA promoter activation (relative to untreated = 1)", "setting": "[1]; 0.25x MIC Pam-3, 1 h, experiment 3", "result": 2.57}, {"measurement": "ypuA promoter activation (relative to untreated = 1)", "setting": "[1]; 0.5x MIC Pam-3, 1 h, experiment 1", "result": 0.23}, {"measurement": "ypuA promoter activation (relative to untreated = 1)", "setting": "[1]; 0.5x MIC Pam-3, 1 h, experiment 2", "result": 0.18}, {"measurement": "ypuA promoter activation (relative to untreated = 1)", "setting": "[1]; 0.5x MIC Pam-3, 1 h, experiment 3", "result": 0.26}, {"measurement": "ypuA promoter activation (relative to untreated = 1)", "setting": "[1]; 1x MIC Pam-3, 1 h, experiment 1", "result": 0}, {"measurement": "ypuA promoter activation (relative to untreated = 1)", "setting": "[1]; 1x MIC Pam-3, 1 h, experiment 2", "result": 0}, {"measurement": "ypuA promoter activation (relative to untreated = 1)", "setting": "[1]; 1x MIC Pam-3, 1 h, experiment 3", "result": 0.02}, {"measurement": "ypuA promoter activation (relative to untreated = 1)", "setting": "[1]; 2x MIC Pam-3, 1 h, experiment 1", "result": 0}, {"measurement": "ypuA promoter activation (relative to untreated = 1)", "setting": "[1]; 2x MIC Pam-3, 1 h, experiment 2", "result": 0}, {"measurement": "ypuA promoter activation (relative to untreated = 1)", "setting": "[1]; 2x MIC Pam-3, 1 h, experiment 3", "result": 0}, {"measurement": "acute toxicity (in words)", "setting": "[2]; histology and serum markers 24 h after two doses of 250 µg orally", "result": "did not reveal acute toxicity"}, {"measurement": "Cecum and Colon: Dysplasia", "setting": "[2]; [3]", "result": "0/6"}, {"measurement": "Cecum and Colon: Inflammation", "setting": "[2]; [3]", "result": "0/6"}, {"measurement": "Duodenum-Jejunum: Dysplasia", "setting": "[2]; [3]", "result": "0/6"}, {"measurement": "Duodenum-Jejunum: Inflammation", "setting": "[2]; [3]", "result": "0/6"}, {"measurement": "Jejunum-Ileum: Dysplasia", "setting": "[2]; [3]", "result": "2/6"}, {"measurement": "Jejunum-Ileum: Inflammation", "setting": "[2]; [3]", "result": "0/6"}, {"measurement": "Jejunum-Ileum: Paneth cells", "setting": "[2]; [3]", "result": "0/6"}, {"measurement": "Kidney: Glomeruli", "setting": "[2]; [3]", "result": "0/6"}, {"measurement": "Kidney: Papilla", "setting": "[2]; [3]", "result": "0/6"}, {"measurement": "Kidney: Pelvis", "setting": "[2]; [3]", "result": "0/6"}, {"measurement": "Kidney: Tubuli", "setting": "[2]; [3]", "result": "3/6"}, {"measurement": "Liver: Anisocaryosis", "setting": "[2]; [3]", "result": "0/6"}, {"measurement": "Liver: Double nucleated cells", "setting": "[2]; [3]", "result": "0/6"}, {"measurement": "Liver: Fatty change", "setting": "[2]; [3]", "result": "0/6"}, {"measurement": "Liver: Glycogen", "setting": "[2]; [3]", "result": "0/6"}, {"measurement": "Liver: Hematopoiesis", "setting": "[2]; [3]", "result": "0/6"}, {"measurement": "Liver: Lymphocytic aggregates", "setting": "[2]; [3]", "result": "0/6"}, {"measurement": "Stomach: Glycogen", "setting": "[2]; [3]", "result": "0/6"}, {"measurement": "Stomach: Lymphocytic aggregates", "setting": "[2]; [3]", "result": "0/6"}, {"measurement": "bodyweight (in words)", "setting": "[2]; oral Pam-3, Fig. 4a", "result": "no alterations in bodyweight"}, {"measurement": "serum glutamic oxaloacetic transaminase vs PBS (in words)", "setting": "[2]; oral Pam-3, Fig. 4b", "result": "no significant differences"}, {"measurement": "serum creatinine vs PBS (in words)", "setting": "[2]; oral Pam-3, Fig. 4c", "result": "no significant differences"}, {"measurement": "Creatinin", "setting": "[2]; [4]", "result": "0.7 mg/dL and 0.3 mg/dL"}, {"measurement": "GOT", "setting": "[2]; [4]", "result": "56 U/I and 83 U/I and 71 U/I and 622 U/I"}, {"measurement": "Creatinin", "setting": "[2]; [5]", "result": "0.4 mg/dL and 0.5 mg/dL and 0.3 mg/dL and 0.2 mg/dL and 0.6 mg/dL"}, {"measurement": "GOT", "setting": "[2]; [5]", "result": "271 U/I and 163 U/I and 240 U/I and 280 U/I and 771 U/I and 499 U/I"}, {"measurement": "Bodyweight loss", "setting": "[2]; treated twice with 125 µg orally, N = 5", "result": "98.6047% and 99.4355% and 98.663% and 99.2814% and 97.8588%"}, {"measurement": "Bodyweight loss", "setting": "[2]; treated twice with 250 µg orally, N = 6", "result": "97.5318% and 97.8707% and 99.133% and 99.7222% and 99.016% and 101.461%"}]}
